Test results from paper PMC10504751, “Chalcone/1,3,4-Oxadiazole/Benzimidazole hybrids as novel anti-proliferative agents inducing apoptosis and inhibiting EGFR & BRAFV^600E” (BMC Chemistry, 2023).
Read-outs that look alike come from different tables or passages of the source.

Experiments:
[1] = system: A498; experiment: NCI one-dose SRB anti-proliferative screen; assay type: cell-based; settings: Homo sapiens, read-out: Cell growth inhibition %
How it was run: (§1)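 10 µM test compound → cell exposure → SRB staining → colorimetric measurement of growth.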

[2] = system: A549/ATCC; experiment: NCI one-dose SRB anti-proliferative screen; assay type: cell-based; settings: Homo sapiens, read-out: Cell growth inhibition %
How it was run: as §1

[3] = system: COLO 205; experiment: NCI one-dose SRB anti-proliferative screen; assay type: cell-based; settings: Homo sapiens, read-out: Cell growth inhibition %
How it was run: as §1

[4] = system: HCC-2998; experiment: NCI one-dose SRB anti-proliferative screen; assay type: cell-based; settings: Homo sapiens, read-out: Cell growth inhibition %
How it was run: as §1

[5] = system: HL-60(TB); experiment: NCI one-dose SRB anti-proliferative screen; assay type: cell-based; settings: Homo sapiens, read-out: Cell growth inhibition %
How it was run: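 Activity reflects a single-point exposure at 10 µM, with cell mass determined by a sulforhodamine B dye assay.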

[6] = system: HOP-92; experiment: NCI one-dose SRB anti-proliferative screen; assay type: cell-based; settings: Homo sapiens, read-out: Cell growth inhibition %
How it was run: as §1

[7] = system: MALME-3M; experiment: NCI one-dose SRB anti-proliferative screen; assay type: cell-based; settings: Homo sapiens, read-out: Cell growth inhibition %
How it was run: as §1

[8] = system: MDA-MB-231/ATCC; experiment: NCI one-dose SRB anti-proliferative screen; assay type: cell-based; settings: Homo sapiens, read-out: Cell growth inhibition %
How it was run: as §1

[9] = system: MDA-MB-435; experiment: NCI one-dose SRB anti-proliferative screen; assay type: cell-based; settings: Homo sapiens, read-out: Cell growth inhibition %
How it was run: as §1

[10] = system: NCI-H322M; experiment: NCI one-dose SRB anti-proliferative screen; assay type: cell-based; settings: Homo sapiens, read-out: Cell growth inhibition %
How it was run: as §1

[11] = system: NCI-H522; experiment: NCI one-dose SRB anti-proliferative screen; assay type: cell-based; settings: Homo sapiens, read-out: Cell growth inhibition %
How it was run: as §1

[12] = system: NCI/ADR-RES; experiment: NCI one-dose SRB anti-proliferative screen; assay type: cell-based; settings: Homo sapiens, read-out: Cell growth inhibition %
How it was run: as §1

[13] = system: SF-268; experiment: NCI one-dose SRB anti-proliferative screen; assay type: cell-based; settings: Homo sapiens, read-out: Cell growth inhibition %
How it was run: as §1

[14] = system: SF-539; experiment: NCI one-dose SRB anti-proliferative screen; assay type: cell-based; settings: Homo sapiens, read-out: Cell growth inhibition %
How it was run: as §1

[15] = system: SK-MEL-28; experiment: NCI one-dose SRB anti-proliferative screen; assay type: cell-based; settings: Homo sapiens, read-out: Cell growth inhibition %
How it was run: as §1

[16] = system: SK-MEL-5; experiment: NCI one-dose SRB anti-proliferative screen; assay type: cell-based; settings: Homo sapiens, read-out: Cell growth inhibition %
How it was run: as §1

[17] = system: SNB-19; experiment: NCI one-dose SRB anti-proliferative screen; assay type: cell-based; settings: Homo sapiens, read-out: Cell growth inhibition %
How it was run: as §1

[18] = system: SNB-75; experiment: NCI one-dose SRB anti-proliferative screen; assay type: cell-based; settings: Homo sapiens, read-out: Cell growth inhibition %
How it was run: as §1

[19] = system: TK-10; experiment: NCI one-dose SRB anti-proliferative screen; assay type: cell-based; settings: Homo sapiens, read-out: Cell growth inhibition %
How it was run: as §1

[20] = target: T1, EGFR (Homo sapiens, UniProt P00533); experiment: EGFR-TK inhibitory assay; assay type: biochemical; settings: read-out: EGFR Inhibition IC50 ± SEM
T1 construct: EGFR cytoplasmic domain (EGFR-CD, amino acids 645–1186); His6 (N); made in house; host or cells: Sf-9 insect cells (baculovirus; pBlueBacHis2B / pFASTBacHTc)
T1 sequence (P00533 669-1210): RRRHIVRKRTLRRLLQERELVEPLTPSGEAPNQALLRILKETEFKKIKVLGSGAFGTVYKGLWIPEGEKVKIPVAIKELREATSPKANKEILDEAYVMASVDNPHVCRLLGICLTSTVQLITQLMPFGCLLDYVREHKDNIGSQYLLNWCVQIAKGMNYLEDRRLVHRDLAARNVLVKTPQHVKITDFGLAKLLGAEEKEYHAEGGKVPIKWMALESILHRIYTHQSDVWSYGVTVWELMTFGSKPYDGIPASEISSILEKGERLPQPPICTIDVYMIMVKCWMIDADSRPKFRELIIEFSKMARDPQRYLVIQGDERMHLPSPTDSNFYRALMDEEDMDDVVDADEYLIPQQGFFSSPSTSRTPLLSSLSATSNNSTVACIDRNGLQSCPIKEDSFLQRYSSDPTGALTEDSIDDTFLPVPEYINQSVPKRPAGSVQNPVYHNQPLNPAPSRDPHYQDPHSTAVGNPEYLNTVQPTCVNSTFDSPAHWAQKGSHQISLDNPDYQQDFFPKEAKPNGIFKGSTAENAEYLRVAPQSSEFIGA

[21] = target: BRAF^V600E; experiment: biochemical
Chain of BRAF^V600E (P28028 whole entry V585E): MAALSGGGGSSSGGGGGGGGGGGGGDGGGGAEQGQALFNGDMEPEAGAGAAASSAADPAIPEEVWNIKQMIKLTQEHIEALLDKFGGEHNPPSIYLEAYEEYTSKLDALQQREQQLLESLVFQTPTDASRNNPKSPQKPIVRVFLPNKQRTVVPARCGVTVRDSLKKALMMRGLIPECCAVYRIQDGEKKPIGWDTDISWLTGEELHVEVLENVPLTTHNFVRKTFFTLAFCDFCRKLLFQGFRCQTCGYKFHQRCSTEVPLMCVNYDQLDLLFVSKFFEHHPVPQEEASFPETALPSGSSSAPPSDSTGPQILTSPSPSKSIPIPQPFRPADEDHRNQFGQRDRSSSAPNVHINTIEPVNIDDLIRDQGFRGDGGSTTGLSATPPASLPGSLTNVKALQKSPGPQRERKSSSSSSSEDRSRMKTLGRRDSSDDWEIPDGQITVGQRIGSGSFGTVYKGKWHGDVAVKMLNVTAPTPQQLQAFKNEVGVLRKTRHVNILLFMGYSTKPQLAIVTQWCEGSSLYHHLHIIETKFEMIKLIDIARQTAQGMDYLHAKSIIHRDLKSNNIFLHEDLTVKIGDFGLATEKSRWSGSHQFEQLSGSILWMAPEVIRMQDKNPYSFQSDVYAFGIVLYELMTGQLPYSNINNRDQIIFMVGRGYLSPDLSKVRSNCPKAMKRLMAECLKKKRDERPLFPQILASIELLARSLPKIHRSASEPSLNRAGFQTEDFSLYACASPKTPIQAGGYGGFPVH
Protocol: To further denature the protein, heat (70° C) was applied for 5 min. […] 10 µL of each reaction was loaded into the precast plates and electrophoresis was allowed to proceed. After completion of electrophoresis, the front part of the precast gel plate (holding hot ATP) was cut and afterwards cast-off. The dried gel was developed using a phosphor screen.

[22] = system: M14; experiment: NCI one-dose SRB anti-proliferative screen; assay type: cell-based; settings: Homo sapiens, read-out: Cell growth inhibition %
How it was run: as §1

[23] = A498, Renal cancer, NCI one dose
[24] = A549/ATCC, Non-Small Cell Lung Cancer, NCI one dose
[25] = COLO 205, Colon cancer, NCI one dose
[26] = HCC-2998, Colon cancer, NCI one dose
[27] = HL-60(TB), Leukemia, NCI one dose
[28] = HOP-92, Non-Small Cell Lung Cancer, NCI one dose
[29] = MALME-3M, Melanoma, NCI one dose
[30] = MDA-MB-231/ATCC, Breast cancer, NCI one dose
[31] = MDA-MB-435, Melanoma, NCI one dose
[32] = NCI-H322M, Non-Small Cell Lung Cancer, NCI one dose
[33] = NCI-H522, Non-Small Cell Lung Cancer, NCI one dose
[34] = NCI/ADR-RES, Ovarian Cancer, NCI one dose
[35] = SF-268, CNS Cancer, NCI one dose
[36] = SF-539, CNS Cancer, NCI one dose
[37] = SK-MEL-28, Melanoma, NCI one dose
[38] = SK-MEL-5, Melanoma, NCI one dose
[39] = SNB-19, CNS Cancer, NCI one dose
[40] = SNB-75, CNS Cancer, NCI one dose
[41] = TK-10, Renal cancer, NCI one dose
[42] = A498 (Renal Cancer), NCI one dose 10 µM
[43] = A549/ATCC (Non-Small Cell Lung Cancer), NCI one dose 10 µM
[44] = COLO 205 (Colon Cancer), NCI one dose 10 µM
[45] = HCC-2998 (Colon Cancer), NCI one dose 10 µM
[46] = HL-60(TB) (Leukemia), NCI one dose 10 µM
[47] = HOP-92 (Non-Small Cell Lung Cancer), NCI one dose 10 µM
[48] = M14 (Melanoma), NCI one dose 10 µM
[49] = MALME-3M (Melanoma), NCI one dose 10 µM
[50] = MDA-MB-231/ATCC (Breast Cancer), NCI one dose 10 µM
[51] = MDA-MB-435 (Melanoma), NCI one dose 10 µM
[52] = NCI-H322M (Non-Small Cell Lung Cancer), NCI one dose 10 µM
[53] = NCI-H522 (Non-Small Cell Lung Cancer), NCI one dose 10 µM
[54] = NCI/ADR-RES (Ovarian Cancer), NCI one dose 10 µM
[55] = SF-268 (CNS Cancer), NCI one dose 10 µM
[56] = SF-539 (CNS Cancer), NCI one dose 10 µM
[57] = SK-MEL-28 (Melanoma), NCI one dose 10 µM
[58] = SK-MEL-5 (Melanoma), NCI one dose 10 µM
[59] = SNB-19 (CNS Cancer), NCI one dose 10 µM
[60] = SNB-75 (CNS Cancer), NCI one dose 10 µM
[61] = TK-10 (Renal Cancer), NCI one dose 10 µM

COc1cc(/C=C/C(=O)c2ccc(NC(=O)CSc3nnc(-c4ccc5[nH]c(-c6ccccc6)nc5c4)o3)cc2)cc(OC)c1OC [Compound 7e, 2-{5-[2-Phenyl-1 H-benzo[d]imidazol-5-yl]-1,3,4-oxadiazol-2-ylthio}-N-{4-[(E)-3-(3,4,5-trimethoxyphenyl)acryloyl]phenyl}acetamide]
inhibition at 10 µM [1, 23]: 15.6% | inhibition at 10 µM [2, 24]: 0% | inhibition at 10 µM [3, 25]: 0% | inhibition at 10 µM [4, 26]: 0% | inhibition at 10 µM [5, 27]: 31% | inhibition at 10 µM [6, 28]: 0% | inhibition at 10 µM [7, 29]: 0% | inhibition at 10 µM [8, 30]: 6.4% | inhibition at 10 µM [9, 31]: 5.93% | inhibition at 10 µM [10, 32]: 3.06% | inhibition at 10 µM [11, 33]: 4.71% | inhibition at 10 µM [12, 34]: 0% | inhibition at 10 µM [13, 35]: 2.34% | inhibition at 10 µM [14, 36]: 17.5% | inhibition at 10 µM [15, 37]: 6.64% | inhibition at 10 µM [16, 38]: 7.81% | inhibition at 10 µM [17, 39]: 15.6% | inhibition at 10 µM [18, 40]: 18.9% | inhibition at 10 µM [19, 41]: 0% | IC50 [20]: 1150 ± 200 nM | IC50 [21]: 900 ± 100 nM

COc1ccc(/C=C/C(=O)c2ccc(NC(=O)CSc3nnc(-c4ccc5[nH]c(-c6ccc(Cl)cc6)nc5c4)o3)cc2)cc1 [Compound 7h, 2-{5-[2-(4-Chlorophenyl)-1 H-benzo[d]imidazol-5-yl]-1,3,4-oxadiazol-2-ylthio}-N-{4-[(E)-3-(4-methoxyphenyl)acryloyl]phenyl}acetamide]
inhibition at 10 µM [1, 42]: 0% | inhibition at 10 µM [2, 43]: 0% | inhibition at 10 µM [3, 44]: 0% | inhibition at 10 µM [4, 45]: 0% | inhibition at 10 µM [5, 46]: 21.4% | inhibition at 10 µM [6, 47]: 0% | inhibition at 10 µM [22, 48]: 0% | inhibition at 10 µM [7, 49]: 6.52% | inhibition at 10 µM [8, 50]: 1.61% | inhibition at 10 µM [9, 51]: 1.94% | inhibition at 10 µM [10, 52]: 0% | inhibition at 10 µM [11, 53]: 20.9% | inhibition at 10 µM [12, 54]: 0% | inhibition at 10 µM [13, 55]: 0% | inhibition at 10 µM [14, 56]: 5.67% | inhibition at 10 µM [15, 57]: 0% | inhibition at 10 µM [16, 58]: 10.3% | inhibition at 10 µM [17, 59]: 0% | inhibition at 10 µM [18, 60]: 1.47% | inhibition at 10 µM [19, 61]: 0% | IC50 [20]: 2300 ± 200 nM | IC50 [21]: 2700 ± 300 nM

COc1ccc(-c2nc3cc(-c4nnc(SCC(=O)Nc5ccc(C(=O)/C=C/c6ccc(OC)c(OC)c6)cc5)o4)ccc3[nH]2)cc1 [Compound 7n, 2-{5-[2-(4-Methoxyphenyl)-1 H-benzo[d]imidazol-5-yl]-1,3,4-oxadiazol-2-ylthio}-N-{4-[(E)-3-(3,4-dimethoxyphenyl)acryloyl]phenyl}acetamide]
inhibition at 10 µM [1, 23]: 0% | inhibition at 10 µM [2, 24]: 3.19% | inhibition at 10 µM [3, 25]: 0% | inhibition at 10 µM [4, 26]: 0% | inhibition at 10 µM [5, 27]: 13.8% | inhibition at 10 µM [6, 28]: 0% | inhibition at 10 µM ([22]; M14, Melanoma, NCI one dose): 10.6% | inhibition at 10 µM [7, 29]: 14.6% | inhibition at 10 µM [8, 30]: 0% | inhibition at 10 µM [9, 31]: 6.15% | inhibition at 10 µM [10, 32]: 5.07% | inhibition at 10 µM [11, 33]: 24.6% | inhibition at 10 µM [12, 34]: 6.05% | inhibition at 10 µM [13, 35]: 0.44% | inhibition at 10 µM [14, 36]: 13.3% | inhibition at 10 µM [15, 37]: 3.97% | inhibition at 10 µM [16, 38]: 16.2% | inhibition at 10 µM [17, 39]: 13.2% | inhibition at 10 µM [18, 40]: 22.1% | inhibition at 10 µM [19, 41]: 0% | IC50 [20]: 1400 ± 200 nM | IC50 [21]: 3700 ± 200 nM

COc1ccc(/C=C/C(=O)c2ccc(NC(=O)CSc3nnc(-c4ccc5[nH]c(-c6ccc(OC)c(OC)c6)nc5c4)o3)cc2)cc1 [Compound 7r, 2-{5-[2-(3,4-Dimethoxyphenyl)-1 H-benzo[d]imidazol-5-yl]-1,3,4-oxadiazol-2-ylthio}-N-{4-[(E)-3-(4-methoxyphenyl)acryloyl]phenyl}acetamide]
inhibition at 10 µM [1, 42]: 0% | inhibition at 10 µM [2, 43]: 0% | inhibition at 10 µM [3, 44]: 0% | inhibition at 10 µM [4, 45]: 0% | inhibition at 10 µM [5, 46]: 20.9% | inhibition at 10 µM [6, 47]: 5.88% | inhibition at 10 µM [22, 48]: 0% | inhibition at 10 µM [7, 49]: 8.71% | inhibition at 10 µM [8, 50]: 4.13% | inhibition at 10 µM [9, 51]: 0% | inhibition at 10 µM [10, 52]: 1.05% | inhibition at 10 µM [11, 53]: 14.3% | inhibition at 10 µM [12, 54]: 0% | inhibition at 10 µM [13, 55]: 0% | inhibition at 10 µM [14, 56]: 7.36% | inhibition at 10 µM [15, 57]: 0% | inhibition at 10 µM [16, 58]: 10.8% | inhibition at 10 µM [17, 59]: 0% | inhibition at 10 µM [18, 60]: 1.88% | inhibition at 10 µM [19, 61]: 0%

COc1cc(-c2nc3cc(-c4nnc(SCC(=O)Nc5ccc(C(=O)/C=C/c6ccccc6)cc5)o4)ccc3[nH]2)cc(OC)c1OC [Compound 7u, 2-{5-[2-(3,4,5-Trimethoxyphenyl)-1 H-benzo[d]imidazol-5-yl]-1,3,4-oxadiazol-2-ylthio}-N-{4-[(E)-3-phenylacryloyl]phenyl}acetamide]
inhibition at 10 µM [1, 42]: 0% | inhibition at 10 µM [2, 43]: 0.78% | inhibition at 10 µM [3, 44]: 0% | inhibition at 10 µM [4, 45]: 0% | inhibition at 10 µM [5, 46]: 5.25% | inhibition at 10 µM [6, 47]: 9.74% | inhibition at 10 µM [22, 48]: 0% | inhibition at 10 µM [7, 49]: 2.82% | inhibition at 10 µM [8, 50]: 4.05% | inhibition at 10 µM [9, 51]: 6.83% | inhibition at 10 µM [10, 52]: 0% | inhibition at 10 µM [11, 53]: 3.99% | inhibition at 10 µM [12, 54]: 0% | inhibition at 10 µM [13, 55]: 0% | inhibition at 10 µM [14, 56]: 13.3% | inhibition at 10 µM [15, 57]: 0% | inhibition at 10 µM [16, 58]: 5.99% | inhibition at 10 µM [17, 59]: 0% | inhibition at 10 µM [18, 60]: 13.8% | inhibition at 10 µM [19, 61]: 0%
